ChEMBL document CHEMBL3352057, “Novel fluorinated pyrrolo[1,2-a]pyrazine-2,6-dione derivatives: synthesis and anticonvulsant evaluation in animal models of epilepsy” (Bioorg Med Chem, 2014)
Activity calls are given as the source filed them. The calls are words filed in the database; no cut-off is given here.

How the values were obtained:
Mus musculus [1] = test: Anticonvulsant activity in albino CF1 mouse assessed as protection against maximal electroshock-induced seizures at 100 mg/kg, ip measured after 0.25 hr; format: functional, organism-based; set-up: dose 100 mg/kg
Mus musculus [2] = test: Anticonvulsant activity in albino CF1 mouse assessed as protection against maximal electroshock-induced seizures at 100 mg/kg, ip measured after 1 hr; format: functional, organism-based; set-up: dose 100 mg/kg
Mus musculus [3] = test: Anticonvulsant activity in albino CF1 mouse assessed as protection against maximal electroshock-induced seizures at 100 mg/kg, ip measured after 4 hrs; format: functional, organism-based; set-up: dose 100 mg/kg
Mus musculus [4] = test: Neurotoxicity in albino CF1 mouse at 100 mg/kg, ip measured after 0.5 hr; format: toxicity, organism-based; set-up: dose 100 mg/kg, route intraperitoneal; conditions: in vivo
Mus musculus [5] = test: Neurotoxicity in albino CF1 mouse at 100 mg/kg, ip measured after 1 hr; format: toxicity, organism-based; set-up: dose 100 mg/kg, route intraperitoneal; conditions: in vivo
Mus musculus [6] = test: Anticonvulsant activity in albino CF1 mouse assessed as protection against 32 mA current-induced seizures at 100 mg/kg, ip measured after 0.5 hr; format: functional, organism-based; set-up: dose 100 mg/kg
Mus musculus [7] = test: Anticonvulsant activity in albino CF1 mouse assessed as protection against 32 mA current-induced seizures at 100 mg/kg, ip measured after 2 hrs; format: functional, organism-based; set-up: dose 100 mg/kg
Mus musculus [8] = test: Neurotoxicity in 32 mA current-induced seizure albino CF1 mouse model at 100 mg/kg, ip measured after 0.5 hr; format: toxicity, organism-based; set-up: dose 100 mg/kg, route intraperitoneal; conditions: in vivo
Mus musculus [9] = test: Neurotoxicity in 32 mA current-induced seizure albino CF1 mouse model at 100 mg/kg, ip measured after 2 hrs; format: toxicity, organism-based; set-up: dose 100 mg/kg, route intraperitoneal; conditions: in vivo
Mus musculus [10] = test: Anticonvulsant activity in albino CF1 mouse assessed as protection against 44 mA current-induced seizures at 100 mg/kg, ip measured after 1 hr; format: functional, organism-based; set-up: dose 100 mg/kg
Mus musculus [11] = test: Neurotoxicity in 44 mA current-induced seizure albino CF1 mouse model at 100 mg/kg, ip measured after 4 hrs; format: toxicity, organism-based; set-up: dose 100 mg/kg, route intraperitoneal; conditions: in vivo
Rattus norvegicus [12] = test: Anticonvulsant activity in Sprague-Dawley rat assessed as protection against maximal electroshock-induced seizures at 30 mg/kg, po measured after 0.25 hr; format: functional, organism-based; set-up: dose 30 mg/kg
Rattus norvegicus [13] = test: Anticonvulsant activity in Sprague-Dawley rat assessed as protection against maximal electroshock-induced seizures at 30 mg/kg, po measured after 1 hr; format: functional, organism-based; set-up: dose 30 mg/kg
Rattus norvegicus [14] = test: Anticonvulsant activity in Sprague-Dawley rat assessed as protection against maximal electroshock-induced seizures at 30 mg/kg, po measured after 2 hrs; format: functional, organism-based; set-up: dose 30 mg/kg
Rattus norvegicus [15] = test: Anticonvulsant activity in Sprague-Dawley rat assessed as protection against maximal electroshock-induced seizures at 30 mg/kg, po measured after 4 hrs; format: functional, organism-based; set-up: dose 30 mg/kg
Rattus norvegicus [16] = test: Neurotoxicity in MES Sprague-Dawley rat model at 30 mg/kg, po measured after 1 hr; format: toxicity, organism-based; set-up: dose 30 mg/kg, route oral; conditions: in vivo
Rattus norvegicus [17] = test: Neurotoxicity in MES Sprague-Dawley rat model at 30 mg/kg, po measured after 4 hrs; format: toxicity, organism-based; set-up: dose 30 mg/kg, route oral; conditions: in vivo
Rattus norvegicus [18] = test: Neurotoxicity in MES Sprague-Dawley rat model at 30 mg/kg, ip measured after 0.5 hr; format: toxicity, organism-based; set-up: dose 30 mg/kg, route intraperitoneal; conditions: in vivo
Rattus norvegicus [19] = test: Neurotoxicity in MES Sprague-Dawley rat model at 30 mg/kg, ip measured after 1 hr; format: toxicity, organism-based; set-up: dose 30 mg/kg, route intraperitoneal; conditions: in vivo
Rattus norvegicus [20] = test: Neurotoxicity in MES Sprague-Dawley rat model at 30 mg/kg, ip measured after 2 hrs; format: toxicity, organism-based; set-up: dose 30 mg/kg, route intraperitoneal; conditions: in vivo
[21] = Protective index, ratio of TD50 for neurotoxicity in ip dosed albino CF1 mouse to ED50 for anticonvulsant activity in ip dosed MES albino CF1 mouse model; format: toxicity, organism-based; conditions: in vivo, read-out: Ratio TD50/ED50
Rattus norvegicus [22] = test: Anticonvulsant activity in ip dosed Sprague-Dawley rat assessed as protection against subcutaneous metrazol-induced seizures; format: functional
[23] = Protective index, ratio of TD50 for neurotoxicity in ip dosed Sprague-Dawley rat to ED50 for anticonvulsant activity in ip dosed MES Sprague-Dawley rat model; format: toxicity, organism-based; conditions: in vivo, read-out: Ratio TD50/ED50
Rattus norvegicus [24] = test: Anticonvulsant activity in ip dosed Sprague-Dawley rat assessed as protection against maximal electroshock-induced seizures measured as time to peak effect; format: functional
Mus musculus [25] = test: Anticonvulsant activity in ip dosed albino CF1 mouse assessed as protection against 32 mA current-induced seizures; format: functional
Mus musculus [26] = test: Anticonvulsant activity in ip dosed albino CF1 mouse assessed as protection against 44 mA current-induced seizures; format: functional
Rattus norvegicus [27] = test: Anticonvulsant activity in ip dosed hippocampal kindled albino Sprague-Dawley rat seizure model assessed as time of rest; format: functional, Hippocampus
Mus musculus [28] = test: Anticonvulsant activity in albino CF1 mouse assessed as protection against iv infusion metrazol-induced seizures measured as twitch at 24 mg/kg, ip (reference value: 28.2 mg/kg); format: functional
Mus musculus [29] = test: Anticonvulsant activity in albino CF1 mouse assessed as protection against iv infusion metrazol-induced seizures measured as twitch at 79 mg/kg, ip (reference value: 28.2 mg/kg); format: functional
Mus musculus [30] = test: Anticonvulsant activity in albino CF1 mouse assessed as protection against iv infusion metrazol-induced seizures measured as clonus at 24 mg/kg, ip (reference value: 31.1 mg/kg); format: functional

## O=C1NC(=O)[C@@H]2CCCN2[C@H]1c1cccc(OC(F)(F)F)c1
Mus musculus [1]
  Activity: Active
Mus musculus [2]
  Activity: Active
Mus musculus [3]
  Activity: inactive
Mus musculus [4]
  Activity: Toxic
Mus musculus [5]
  Activity: Non-toxic
Mus musculus [6]
  Activity: Active
Mus musculus [7]
  Activity: inactive
Mus musculus [8]
  Activity: Non-toxic
Mus musculus [9]
  Activity: Non-toxic
Mus musculus [10]
  Activity: Active
Mus musculus [11]
  Activity: Non-toxic
Rattus norvegicus [12]
  Activity: inactive
Rattus norvegicus [13]
  Activity: inactive
Rattus norvegicus [14]
  Activity: inactive
Rattus norvegicus [15]
  Activity: inactive
Rattus norvegicus [16]
  Activity: Non-toxic
Rattus norvegicus [17]
  Activity: Non-toxic
Rattus norvegicus [18]
  Activity: Non-toxic
Rattus norvegicus [19]
  Activity: Non-toxic
Rattus norvegicus [20]
  Activity: Non-toxic
[21]
  selectivity ratio: 3.2
Rattus norvegicus [22]
  ED50: 41 µmol/kg
[23]
  selectivity ratio: 2.8
Rattus norvegicus [24]
  Time: 0.25 h
Mus musculus [25]
  ED50: 176 µmol/kg
Mus musculus [26]
  ED50: 171 µmol/kg
Rattus norvegicus [27]
  Time: 0.25 h
Mus musculus [28]
  Activity: 35.2 mg/kg
Mus musculus [29]
  Activity: 64.8 mg/kg
Mus musculus [30]
  Activity: 41.7 mg/kg
